According to patent publication US3969522A, “Diaryl-pyridyl-imidazole methanes for treating mycotic infections” (Bayer Aktiengesellschaft, priority 1972, dated 1976):
Values after ≈ are worked out from the molar mass of the structure shown. Where a name gives a salt, the structure may show the parent alone.

What was measured:
Assay type in all cases: cell-based
Penicillium commune = experiment: series dilution test in vitro, Penicillium commune; settings: 28° C, 24 to 96 hours; for MIC: read-out: Minimum Inhibitory Concentration
Method: (§1) A. Determination of the antimycotic action spectrum in vitro by means of the series dilution test
(§2) Sabourauds' milieu d'epreuve is used as the nutrient substrate for dermatophytes and Aspergilli, and meat-broth-glucose-bouillon is used as the nutrient substrate for blastomyces. The incubation temperature is 28° C and the incubation time is 24 to 96 hours.

Candida albicans = experiment: series dilution test in vitro, Candida albicans; settings: 28° C, 24 to 96 hours; for MIC: read-out: Minimum Inhibitory Concentration
Method: as §1, §2

[1] = test system: Trichophyton mentagrophytes; experiment: series dilution test in vitro, Trichophyton mentagrophytes; settings: Sabourauds' milieu d'epreuve, 28° C, 24 to 96 hours; for MIC: read-out: Minimum Inhibitory Concentration
Method: as §1, §2

Aspergillis niger = experiment: series dilution test in vitro, Aspergillus niger; settings: Sabourauds' milieu d'epreuve, 28° C, 24 to 96 hours; for MIC: Aspergillus niger, read-out: Minimum Inhibitory Concentration
Method: as §1, §2

| MIC (Penicillium commune) [µg/mL] | MIC (Candida albicans) [µg/mL] | MIC [1] [µg/mL] | MIC (Aspergillis niger) [µg/mL] | Compound | Minimum Inhibitory Concentration (Penicillium commune) [µg/mL] | Minimum Inhibitory Concentration [1] [µg/mL] | Minimum Inhibitory Concentration (Aspergillis niger) [µg/mL] | Minimum Inhibitory Concentration (Candida albicans) [µg/mL] |
| --- | --- | --- | --- | --- | --- | --- | --- | --- |
| 4 (≈ 11.8 µM) | 1 (≈ 2.95 µM) | 0.5 (≈ 1.47 µM) | < 1 | Cc1ccc(C(c2ccccc2)(c2ccccn2)n2ccnc2)cc1C (stereo not drawn) [Example 1, 1-(3,4-dimethylphenyl-phenyl-2-pyridyl)-methyl-imidazole] |  |  |  |  |
| 4 (≈ 11.8 µM) | 10 (≈ 29.5 µM) | 0.5 (≈ 1.47 µM) | 4 (≈ 11.8 µM) | Cc1ccc(C(c2ccccc2)(c2ccccn2)n2ccnc2)c(C)c1 (stereo not drawn) [Example 2, 1-(2,4-dimethylphenyl-phenyl-2-pyridyl)-methyl-imidazole] |  |  |  |  |
| 10 | 1 | 0.5 | 4 | Cc1cccc(C)c1C(c1ccccc1)(c1ccccn1)n1ccnc1 (stereo not drawn) [Example 3, 1-(2,6-dimethylphenyl-phenyl-2-pyridyl)-methyl-imidazole hydrochloride] |  |  |  |  |
| 10 (≈ 29.5 µM) | 4 (≈ 11.8 µM) | 0.5 (≈ 1.47 µM) | 4 (≈ 11.8 µM) | Cc1ccc(C(c2ccccc2)(c2ccncc2)n2ccnc2)c(C)c1 (stereo not drawn) [Example 4, 1-(2,4-dimethylphenyl-phenyl-4-pyridyl)-methyl-imidazole] |  |  |  |  |
|  | 1 (≈ 2.95 µM) |  |  | Cc1ccc(C(c2ccccc2)(c2ccncc2)n2ccnc2)cc1C (stereo not drawn) [Example 5, 1-(3,4-dimethylphenyl-phenyl-4-pyridyl)-methyl-imidazole] | 10 | 0.5 | 1 |  |
| 40 (≈ 118 µM) | 4 (≈ 11.8 µM) | 0.5 (≈ 1.47 µM) | 40 (≈ 118 µM) | Cc1ccc(C)c(C(c2ccccc2)(c2ccncc2)n2ccnc2)c1 (stereo not drawn) [Example 6, 1-(2,5-dimethylphenyl-phenyl-4-pyridyl)-methyl-imidazole] |  |  |  |  |
|  | 1 (≈ 2.95 µM) |  |  | Cc1cccc(C(c2ccccc2)(c2ccccn2)n2ccnc2)c1C (stereo not drawn) [Example 7, 1-(2,3-dimethylphenyl-phenyl-2-pyridyl)-methyl-imidazole] | 1 | 0.05 | 0.1 |  |
|  |  |  |  | Cc1cccc(C(c2ccccc2)(c2ccccn2)n2ccnc2)c1C (stereo not drawn) [Example 8, 1-(2,3-dimethylphenyl-phenyl-2-pyridyl)-methyl-imidazole 1,5-naphthalenedisulphonate] | 4 | 1 | 1 | 1 |
| 4 (≈ 11.8 µM) | 1 (≈ 2.95 µM) | 0.5 (≈ 1.47 µM) | 1 (≈ 2.95 µM) | Cc1cccc(C(c2ccccc2)(c2ccncc2)n2ccnc2)c1C (stereo not drawn) [Example 9, 1-(2,3-dimethylphenyl-phenyl-4-pyridyl)-methyl-imidazole] |  |  |  |  |
|  |  |  |  | Cc1ccc(C(c2ccccc2)(c2ccncc2)n2ccnc2)cc1C (stereo not drawn) [Example 10, 1-(3,4-dimethylphenyl-phenyl-4-pyridyl)-methyl-imidazole 1,5-naphthalenedisulphonate] | 4 | 10 | 4 | 1 |
| < 4 | 4 (≈ 12.1 µM) | < 4 | 4 (≈ 12.1 µM) | Fc1ccc(C(c2ccccc2)(c2ccccn2)n2ccnc2)cc1 (stereo not drawn) [Known Compound 1, 1-(4-fluorophenyl-phenyl-2-pyridyl)-methylimidazole, reference compound] | > 2 | > 2 | 2 |  |
| < 4 | 4 (≈ 10.5 µM) | < 4 | < 4 | FC(F)(F)c1cccc(C(c2ccccc2)(c2ccccn2)n2ccnc2)c1 (stereo not drawn) [Known Compound 2, 1-(3-trifluoromethylphenyl-phenyl-2-pyridyl)-methylimidazole, reference compound] | > 2 | > 2 | > 2 |  |
